Assay results from patent US10953027B2, “Active agents and methods of their use for the treatment of metabolic disorders and nonalcoholic fatty liver disease” (Flagship Pioneering Innovations V, Inc., priority 2018, dated 2021).

Key:
Type in all cases: in vitro ADME
[1] = Assay 2. Stability in Simulated Intestinal Fluid (SIF); conditions: 1 μM, 37° C., SIF pH 6.7 with pancreatin
Method in brief: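 Degradation rate measured by LC/MS after acetonitrile quench of timed aliquots, starting at T0. Test compound 1 μM in simulated intestinal fluid (pH 6.7 phosphate buffer, FaSSIF powder, pancreatin), shaken at 37 °C.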

[2] = Assay 1. Stability in Simulated Gastric Fluid (SGF); conditions: 1 μM, 37° C., SGF pH 1.6 with pepsin
Method in brief: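 Simulated gastric fluid, prepared fresh as NaCl buffer at pH 1.6 with 0.1 mg/mL pepsin and FaSSIF powder, received test compound to 1 μM final and was held at 37 °C. LC/MS of acetonitrile-quenched samples, taken immediately and then periodically, gave degradation rates.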

[3] = Assay 3. Fecal Incubation Stability; conditions: 1 or 10 μM, human fecal slurry, anaerobic

Structure (SMILES)	Assay 2 (SIF) (% @ Remaining 4 hours) [1]	Assay 1 (SGF) (% Remaining @ 1 hours) [2]	Assay 3 (% Remaining at 24 h) [3]
CCC(=O)O[C@H]1[C@@H](OC(=O)CCc2c[nH]c3ccccc23)OC[C@@H](OC(=O)CC)[C@H]1OC(=O)CC [Compound 126, (2R,3R,4R,5R)-3,4,5-tris(propanoyloxy)oxan-2-yl 3-(1H-indol-3-yl)propanoate]	A (A: <25% of the tested compound remaining)	C (C: >75% of the tested compound remaining)	A (A: <25% of the tested compound remaining)
CCC(=O)O[C@@H]1[C@H](OC)OC[C@@H](OC(=O)CC)[C@H]1OC(=O)CC [Compound 101, (2R,3S,4R,5R)-2-methoxy-3,5-bis(propanoyloxy)oxan-4-yl Propanoate]	A (A: <25% of the tested compound remaining)	C (C: >75% of the tested compound remaining)	B (B: 25-75% of the tested compound remaining)
CCCC(=O)Oc1cc(OC(=O)CCC)c2c(c1)O[C@H](c1ccc(OC(=O)CCC)c(OC(=O)CCC)c1)[C@H](OC(=O)CCC)C2 [Compound 235, (2R,3R)-2-[3,4-bis(butanoyloxy)phenyl]-5,7-bis(butanoyloxy)-3,4-dihydro-2H-1-benzopyran-3-yl Butanoate]	A (A: <25% of the tested compound remaining)	C (C: >75% of the tested compound remaining)	A (A: <25% of the tested compound remaining)
O=C(CCc1c[nH]c2ccccc12)Oc1ccc(/C=C/c2cc(OC(=O)CCc3c[nH]c4ccccc34)cc(OC(=O)CCc3c[nH]c4ccccc34)c2)cc1 [Compound 259, 4-[(1E)-2-[3,5-bis({[3-(1H-indol-3-yl)propanoyl]oxy})phenyl]ethenyl]phenyl 3-(1H-indol-3-yl)propanoate]	C (C: >75% of the tested compound remaining)	C (C: >75% of the tested compound remaining)	B (B: 25-75% of the tested compound remaining)
C[C@@H]1OC(O)[C@@H](OC(=O)CCc2c[nH]c3ccccc23)[C@H](OC(=O)CCc2c[nH]c3ccccc23)[C@@H]1OC(=O)CCc1c[nH]c2ccccc12 (stereo partly drawn) [Compound 95, (2S,3R,4R,5S)-6-hydroxy-4,5-bis({[3-(1H-indol-3-yl)propanoyl]oxy})-2-methyloxan-3-yl 3-(1H-indol-3-yl)propanoate]	A (A: <25% of the tested compound remaining)	C (C: >75% of the tested compound remaining)	C (C: >75% of the tested compound remaining)
O=C(CCc1c[nH]c2ccccc12)O[C@@H]1OC[C@H](OC(=O)CCc2c[nH]c3ccccc23)[C@H](OC(=O)CCc2c[nH]c3ccccc23)[C@H]1OC(=O)CCc1c[nH]c2ccccc12 [Compound 102, (2S,3R,4S,5S)-3,4,5-tris({[3-(1H-indol-3-yl)propanoyl]oxy})oxan-2-yl 3-(1H-indol-3-yl)propanoate]	A (A: <25% of the tested compound remaining)	B (B: 25-75% of the tested compound remaining)	A (A: <25% of the tested compound remaining)
CC(=O)OC[C@H]1O[C@@H](OC(C)=O)[C@H](N)[C@@H](OC(C)=O)[C@@H]1OC(C)=O [Compound 194, (2S,3R,4R,5S,6R)-6-(acetoxymethyl)-3-aminotetrahydro-2H-pyran-2,4,5-triyl Triacetate]	A (A: <25% of the tested compound remaining)	C (C: >75% of the tested compound remaining)	C (C: >75% of the tested compound remaining)
CCC(=O)O[C@@H]1[C@@H](OC(=O)CC)[C@H](OC(=O)Cc2c[nH]c3ccccc23)OC[C@H]1OC(=O)CC [Compound 109, (2S,3R,4S,5R)-2-{[2-(1H-indol-3-yl)acetyl]oxy}-4,5-bis(propanoyloxy)oxan-3-yl Propanoate]	A (A: <25% of the tested compound remaining)	C (C: >75% of the tested compound remaining)	A (A: <25% of the tested compound remaining)
CCC(=O)Oc1ccc(-c2cc(=O)c3c(O)cc(OC(=O)CC)cc3o2)cc1 [Compound 199, 5-hydroxy-4-oxo-2-[4-(propanoyloxy)phenyl]-4H-chromen-7-yl Propanoate]	A (A: <25% of the tested compound remaining)	B (B: 25-75% of the tested compound remaining)	A (A: <25% of the tested compound remaining)
CCCC(=O)O[C@@H]1[C@@H](OC(=O)CCC)[C@@H](OC)OC[C@H]1OC(=O)CCC [Compound 104, (2S,3R,4S,5R)-4,5-bis(butanoyloxy)-2-methoxyoxan-3-yl Butanoate]	A (A: <25% of the tested compound remaining)	B (B: 25-75% of the tested compound remaining)	A (A: <25% of the tested compound remaining)
CCC(=O)O[C@@H]1[C@@H](OC(=O)CC)[C@@H](OC(=O)CCc2c[nH]c3ccccc23)OC[C@@H]1OC(=O)CC [Compound 158, (2R,3R,4S,5S)-3,4,5-tris(propanoyloxy)oxan-2-yl 3-(1H-indol-3-yl)propanoate]	A (A: <25% of the tested compound remaining)	C (C: >75% of the tested compound remaining)	A (A: <25% of the tested compound remaining)
CCC(=O)O[C@H]1[C@H](OC(=O)CC)[C@@H](OC(=O)CCc2c[nH]c3ccccc23)O[C@@H](C)[C@H]1OC(=O)CC [Compound 110, (2R,3S,4R,5R,6S)-6-methyl-3,4,5-tris(propanoyloxy)oxan-2-yl 3-(1H-indol-3-yl)propanoate]	C (C: >75% of the tested compound remaining)	C (C: >75% of the tested compound remaining)	A (A: <25% of the tested compound remaining)
CCC(=O)O[C@@H]1OC[C@@H](OC(=O)CC)[C@@H](OC(=O)CC)[C@H]1OC(=O)CC [Compound 136, (2S,3R,4R,5R)-3,4,5-tris(propanoyloxy)oxan-2-yl Propanoate]	A (A: <25% of the tested compound remaining)	C (C: >75% of the tested compound remaining)	A (A: <25% of the tested compound remaining)
CCC(=O)Oc1ccc(-c2cc(=O)c3c(OC(=O)CC)cc(OC(=O)CC)cc3o2)cc1 [Compound 203, 4-oxo-7-(propanoyloxy)-2-[4-(propanoyloxy)phenyl]-4H-chromen-5-yl Propanoate]	A (A: <25% of the tested compound remaining)	C (C: >75% of the tested compound remaining)	B (B: 25-75% of the tested compound remaining)
CCCC(=O)OC[C@H]1O[C@H](OC(=O)CCc2c[nH]c3ccccc23)[C@H](OC(=O)CCC)[C@@H](OC(=O)CCC)[C@@H]1OC(=O)CCC [Compound 122, [(2R,3R,4S,5R,6R)-3,4,5-tris(butanoyloxy)-6-{[3-(1H-indol-3-yl)propanoyl]oxy}oxan-2-yl]methyl Butanoate]	B (B: 25-75% of the tested compound remaining)	C (C: >75% of the tested compound remaining)	A (A: <25% of the tested compound remaining)
CCC(=O)O[C@@H]1[C@@H](OC(=O)CC)[C@H](C)O[C@H](OC(=O)/C=C/c2c[nH]c3ccccc23)[C@@H]1OC(=O)CC [Compound 139, (2R,3R,4R,5S,6S)-6-methyl-3,4,5-tris(propanoyloxy)oxan-2-yl (2E)-3-(1H-indol-3-yl)prop-2-enoate]	A (A: <25% of the tested compound remaining)	B (B: 25-75% of the tested compound remaining)	B (B: 25-75% of the tested compound remaining)
CCC(=O)OC1O[C@H](C(=O)O)[C@@H](OC(=O)CC)[C@H](OC(=O)CC)[C@H]1OC(=O)CC (stereo in doubt) [Compound 80, (2S,3S,4S,5R,6S)-3,4,5,6-tetrakis(propanoyloxy)oxane-2-carboxylic Acid]	A (A: <25% of the tested compound remaining)	C (C: >75% of the tested compound remaining)	A (A: <25% of the tested compound remaining)
CCC(=O)Oc1cc(C(=O)O)cc(OC(=O)CC)c1OC(=O)CC [Compound 239, 3,4,5-tris(propanoyloxy)benzoic Acid]	A (A: <25% of the tested compound remaining)	C (C: >75% of the tested compound remaining)	A (A: <25% of the tested compound remaining)
CCC(=O)O[C@H]1O[C@H](C(=O)O)[C@@H](OC(=O)CC)[C@H](OC(=O)CC)[C@H]1OC(=O)CC [Compound 79, (2S,3S,4S,5R,6R)-3,4,5,6-tetrakis(propanoyloxy)oxane-2-carboxylic Acid]	A (A: <25% of the tested compound remaining)	C (C: >75% of the tested compound remaining)	A (A: <25% of the tested compound remaining)
CCCC(=O)O[C@@H]1[C@@H](OC(=O)CCC)[C@@H](OC)OC[C@@H]1OC(=O)CCC [Compound 85, (2S,3R,4S,5S)-3,5-bis(butanoyloxy)-2-methoxyoxan-4-yl Butanoate]	B (B: 25-75% of the tested compound remaining)	B (B: 25-75% of the tested compound remaining)	B (B: 25-75% of the tested compound remaining)
